# Laboratory results reported in patent US12636373B2, “Prodrugs with a tridentate self-immolative linker” (The General Hospital Corporation, priority 2018, dated 2026).
# pIC50: −log10 of the molar value. Where two headings read alike, the source gives them in different places. Where a SMILES comes first, the peptide text is derived from it. [ ]: non-standard residue; d: D form. The star is where a group is joined. ξ: configuration not given here. Dolaproine = CO[C@@H]([C@@H]1CCCN1)[C@@H](C)C(=O)O; X1 = C=CCOC(=O)Nc1ccc(C(OC(=O)*)C(=O)NCC)cc1; Dil = CC[C@H](C)[C@H](NC)[C@@H](CC(=O)O)OC; X2 = C[C@@H](N*)[C@@H](O)c1ccccc1; NMeV = CN[C@H](C(=O)O)C(C)C; ξV = CC(C)C(N)C(=O)O
# How the values were obtained:
# [1] = cited from earlier work
# [2] = test system: HT1080 fibrosarcoma cancer cells; assay: Resazurin-based cytotoxicity assay, 72 h; settings: for turn-on capacity in cytotoxicity: with vs without Pd-NP
# Protocol: (§2) In vitro NP characterization: 5,000 cells per well were added to 96-well plates for cytotoxicity assessment; cells were treated after overnight seeding with compound or the appropriate buffer control (drug-free PLGA-PEG NP), and assessed for viability 72 h later using PrestoBlue (Life Technologies) following the manufacturer's protocol.
# [3] = Pd-mediated uncaging of fluorogenic coumarin substrate (reaction kinetics and catalyst performance); settings: PdCl2(TFP)2, HBSS
# Protocol: Reaction kinetics and catalyst performance. Alloc-SIL-dPEG4-AMC (8) was reacted at a concentration of 5 μM with palladium catalyst (Pd-1, Pd-2, Pd-3, Pd-4) at a concentration of 10 μM in HBSS and MEM (see FIG. 8). Alloc2R110 was reacted at a concentration of 5 μM with Pd-1 at a concentration of 10 μM in HBSS as described previously.2 Fluorescence was monitored for 10 h at room temperature using 96 well plates and a Tecan Safire 2 fluorescence plate reader.
# [4] = In vitro NP prodrug release in PBS; type: physicochemical; settings: over 72 h at 37° C. in PBS
# Protocol: Transmission electron microscopy (TEM) was performed in the Microscopy Core of the Center for Systems Biology/Program in Membrane Biology (MGH). […] Excess solution was blotted, grids were stained with phosphotungstic acid, and then blotted, dried and imaged. In vitro NP prodrug release was performed by incubating in PBS at 37° C., separating NPs using a 30 kDa molecular weight cutoff filter (Millipore Amicon) after 72 h, and measuring flow-through for drug content by absorbance (Nanodrop). NP was dissolved in DMF and also measured for drug content by absorbance. Pd-NP, Alloc2R110 and its nanoformulation, and all Pd compounds were synthesized and characterized as previously described.^5
# HT1080 cancer cells = assay: Subcellular drug accumulation by intrinsic anthracycline fluorescence microscopy; type: cell-based, human; settings: HT1080, 24 h
# Protocol: FIGS. 3A-3D. […] Co-localization was determined by tabulating the fraction of NP-positive puncta (vesicles) in cells that contained high RFP expression or not (labeled red and gray, respectively; n>10 cells, bars are mean±std. dev.). b) Following 30 min pre-treatment with the indicated compounds, HT1080 cells were treated with the same NP as in a, and imaged 3 h later (n>6 biological replicates; mean±s.e.m.). c-d) HT1080 tumor cells were treated with C16proDOX, DOX, or Pd-NP with C16proDOX for 24 h, and then imaged by fluorescence microscopy (representative images shown in c) to evaluate subcellular drug accumulation based on endogenous anthracycline fluorescence (scale bar, 20 μm). Yellow lines (c) denote representative examples of how fluorescence intensity profiles were quantified from line-scans through cells (d), shown as means (thick line)±s.e.m. (shading; n>10), for hoechstand anthracycline fluorescence.
# [5] = test system: panel of 4 cancer cell lines; assay: Cytotoxicity across a panel of cancer cell lines, 72 h; type: cell-based; settings: prodrug alone, concentrations ≤10 μM
# HT1080-EB3-mApple cells = assay: EB3 microtubule comet imaging in live cells; type: cell-based, human; settings: 24 h
# Protocol: Microtubule imaging. EB3 tracking was performed using an FV1000 confocal laser scanning microscope on a 37° C. heated stage, with XLUMPLFLN 20× (NA 1.0) or LUMFLN 60× (NA 1.1) water-immersion objectives, 1-10× digital zoom, 559-nm diode laser, and BA575-620 emission filter (all Olympus America). […] EB3 tracks were automatically identified and analyzed from time-lapse datasets using u-track software,^35 with tuning of maximum gap number and minimum frame number across datasets to account for differences in image quality; ambiguous and spurious tracks and artifacts were excluded according to requirements for directional continuity (directional persistence as net displacement/path length>0.8) and movement (value>3 pixels). Speed was determined between frames in each track and averaged for each track by computing the mean of the middle 80% of between-frame values. Track overlay figures were produced using a custom python script. Averaged track speeds excluded outliers falling more than 1.5× the interquartile range for each biological replicate.
# [6] = test system: subcutaneous HT1080 xenograft tumors; assay: HT1080 xenograft tumor growth; type: in vivo, nu/nu mice
# Protocol: (§1) Cell lines and animal models: All animal research was performed in accordance with guidelines from the Institutional Subcommittee on Research Animal Care. HT1080 xenografts were generated by 2 million cells implanted subcutaneously in flanks of 6-8 week old female nu/nu mice (Cox7/MGH) in 50 μl PBS. MC38 syngeneic tumors were formed by intradermal implantation of 2 million cells in 50 μl PBS, in the flanks of 7-12 week old female C57BL/6 mice (JAX), following previously described inoculation protocols.^33 Four blinded caliper measurements per tumor were used to measure tumor size according to the formula V=(width)^2(length)/2; animals were randomly assigned to treatment groups. Experiments build on prior imaging, biodistribution, and longitudinal tumor growth data that likewise guided determination of experimental sample sizes.^5, 30 Treatment began approximately 3 weeks post-implantation once tumors reached an average diameter of 5.5±1.8 mm in the HT1080 model (mean±std. dev.; n=72), and roughly 2 weeks post-implantation in the MC38 model once tumors reached an average diameter of 5.45±1.2 mm (mean±std. dev.; n=14). […] Blood chemistry readouts were measured from plasma collected in heparinized tubes by terminal cardiac puncture under vaporized isoflurane anesthesia, using the MGH Veterinary Clinical Pathology lab and the automated DriChem blood chemistry analyzer (Heska). […]
# [7] = test system: MC38 murine colon adenocarcinoma tumors; assay: MC38 syngeneic tumor growth; type: in vivo, C57BL/6 mice; settings: combined with Pd-NP
# Protocol: as §1
# [8] = Body weight and blood chemistry of treated tumor-bearing animals; type: in vivo, mice; settings: dual Pd-NP and C16proMMAE
# Protocol: as §1
# HT1080 cells = type: cell-based, human; settings: for uptake of fluorescent PLGA-PEG NPs: 30 min pre-treatment, imaged 3 h later
# Protocol: In vitro NP uptake imaging. To quantify subcellular localization of NPs in HT1080 cells, Rab7a-RFP and Lamp1-RFP fusion constructs were expressed using a commercial baculovirus platform (CellLight BacMam 2.0, Invitrogen), following manufacturing guidelines. Pharmacological modulation of NP uptake was performed using the following: staurosporine (1 μM; LC labs), latrunculin B (1 μM; Tocris), cytochalasin D (1 μM; Sigma), chloroquine (50 μM; Sigma), and ethylisopropyl amiloride EIPA (100 μM; Tocris). Cells were rinsed in fresh media immediately prior to imaging; only adherent cells were quantified. Chloroquine dose-response measurements were normalized to the C16proDOX control (rather than the chloroquine-free control), in order to compare relative effects on the potency of Pd-mediated C16proDOX activation itself 50 μM chloroquine alone caused a 15-30% decrease in cell viability.
# [9] = Resazurin-based cytotoxicity assay, 72 h; settings: human, HT1080 fibrosarcoma cancer cells
# Protocol: as §2
# [10] = without the C16 anchor; cited from earlier work
# [11] = Homo sapiens, HT-1080, 72 h, read-out: IC50 (concentration at which 50% of cells died)
smiles,measurement,setting,value
"C=CCOC(=O)N[C@H]1C[C@H](O[C@H]2C[C@](O)(C(=O)CO)Cc3c(O)c4c(c(O)c32)C(=O)c2c(OC)cccc2C4=O)O[C@@H](C)[C@H]1O [Alloc-DOX, reference compound]",myelotoxicity,[1]; dual Pd-NP and Alloc-DOX strategy,did not
same,pIC50,"[2]; read-out: IC50 (concentration at which 50% of cells died), HT1080, 72 h, without Pd-NP",4.74
same,turn-on capacity in cytotoxicity,[2],~700 ×
"C=CCOC(=O)Nc1ccc(C(OC(=O)Nc2ccc3c(C)cc(=O)oc3c2)C(=O)NCCOCCOCCOCCO)cc1 (stereo not drawn) [Alloc-SIL-PEG4-AMC, Alloc-SIL-AMC-dPEG4]",uncaging rate relative to Alloc2R110 (calculated second order rate constants),[3],approximately 1.5 fold
"C=CCOC(=O)Nc1ccc(C(OC(=O)N[C@H]2C[C@H](O[C@H]3C[C@](O)(C(=O)CO)Cc4c(O)c5c(c(O)c43)C(=O)c3c(OC)cccc3C5=O)O[C@@H](C)[C@H]2O)C(=O)NCCCCCCCCCCCCCCCC)cc1 (stereo partly drawn) [C16proDOX, Alloc-SIL-C16-Dox]",release of the prodrug payload from the nanoformulation,[4],20%±6%
same,subcellular accumulation,HT1080 cancer cells; co-incubation with Pd-NP,detectable increase of drug in the nucleus compared to the cytoplasm
same,subcellular accumulation,HT1080 cancer cells; without Pd-NP,accumulated primarily in cytoplasmic/perinuclear cellular compartments
same,"IC20, fold higher than Alloc-DOX","[2]; HT1080, without Pd-NP",roughly 15 fold
same,"IC20, fold higher than uncaged DOX","[2]; HT1080, without Pd-NP",~1900 fold
same,pIC50,[2]; [11],< 4.30
"C=CCOC(=O)Nc1ccc(C(OC(=O)N(C)[C@H](C(=O)NC(C(=O)N(C)[C@@H]([C@@H](C)CC)[C@@H](CC(=O)N2CCC[C@H]2[C@H](OC)[C@@H](C)C(=O)N[C@H](C)[C@@H](O)c2ccccc2)OC)C(C)C)C(C)C)C(=O)NCC)cc1 (stereo partly drawn) [C16proMMAE, Alloc-SIL-C16-MMAE] (X1-[NMeV][ξV][Dil][Dolaproine]-X2)",release of the prodrug payload from the nanoformulation,[4],< 10%
same,impact on cell growth,[5],no detectable impact on cell growth
same,microtubule comets,HT1080-EB3-mApple cells; 1 μM C16proMMAE combined with 35 μM Pd-NP,complete elimination of visible comets
same,microtubule comets (prevalence and growth speed),"HT1080-EB3-mApple cells; individual treatment, 1 μM MMAE or C16proMMAE, 35 μM Pd-NP",not substantially perturbed
same,tumor growth at 2 days following the 2nd round of treatment,[6]; combined with Pd-NP,completely blocked
same,reduction in prodrug dose required for controlling tumor growth in vivo,[6]; compared to Alloc-DOX,50 fold
same,tumor growth,[7],effective at slowing tumor growth
same,tumor growth at 2 days following the 2nd round of treatment,[7],completely blocked
same,drug-induced weight loss,[8]; HT1080 or MC38 tumor-bearing animals,did not show drug-induced weight loss
same,blood chemistry analysis,[8]; MC38 tumor-bearing mice,no signs of drug-induced liver or kidney toxicity
same,enhanced cytotoxicity with sub-micromolar Pd-NP,"[2]; HT1080, sub-micromolar Pd-NP",> 10 fold
same,pIC50,"[2]; Homo sapiens, HT-1080, 72 h, read-out: IC50 upon Pd-NP activation",10.82
same,level of prodrug activation based on cytotoxicity,[2]; Pd-NP concentration 50 μM,> 90%
same,concentration at which cytotoxic upon activation by Pd-NP,[2]; with Pd-NP,< 0.1 nM
same,turn-on capacity in cytotoxicity,[2],"> 70,000 ×"
"CCN(c1nc(N)c(C(=O)N=C(N)N)nc1Cl)C(C)C [EIPA, 5-(N-Ethyl-N-isopropyl)amiloride]",uptake of fluorescent PLGA-PEG NPs,HT1080 cells,acutely reduced the uptake of NPs
"CCN(CC)CCCC(C)Nc1ccnc2cc(Cl)ccc12 (stereo not drawn) [chloroquine, reference compound]",NP accumulation in vesicles,"HT1080 cells; HT1080, 50 μM chloroquine co-treatment, 24 h",enhanced accumulation of NPs in distinctly large vesicles
same,"cytotoxicity at 72 h, 50 μM",[9],15 to 30%
same,impact on cytotoxicity of combined Pd-NP and C16proDOX treatment,"[2]; HT1080, 50 μM chloroquine, 50 μM Pd-NP, 72 h",only modest impact
C=C1[C@@H](C)[C@H]2[C@H](Cc3ccccc3)NC(=O)[C@]23[C@H](OC(C)=O)/C=C/[C@@](C)(O)C(=O)[C@@H](C)C/C=C/[C@H]3[C@@H]1O [cytochalasin D],uptake of fluorescent PLGA-PEG NPs,HT1080 cells,acutely reduced the uptake of NPs
"COc1cccc2c1C(=O)c1c(O)c3c(c(O)c1C2=O)C[C@@](O)(C(=O)CO)C[C@@H]3O[C@H]1C[C@H](N)[C@H](O)[C@H](C)O1 [doxorubicin, reference compound]",subcellular accumulation,HT1080 cancer cells; without Pd-NP,primarily accumulates in the nuclei of cancer cells
same,nano-encapsulation efficiency (earlier report),[10],22%
same,myelotoxicity,"[1]; solvent- and nano-formulations, equimolar doses",exhibited myelotoxicity
same,pIC50,[2]; [11],7.00
C/C1=C/C(=O)O[C@@H]2C[C@@H](CC[C@H](C)/C=C\C=C\CC1)O[C@@](O)([C@@H]1CSC(=O)N1)C2 [latrunculin A],uptake of fluorescent PLGA-PEG NPs,HT1080 cells,acutely reduced the uptake of NPs
CN[C@@H]1C[C@H]2O[C@@](C)([C@@H]1OC)n1c3ccccc3c3c4c(c5c6ccccc6n2c5c31)C(=O)NC4 [staurosporine],uptake of fluorescent PLGA-PEG NPs,HT1080 cells,decreased NP accumulation
